The values below come from patent US20020034534A1, “System and method for delivering a therapeutic agent over an extended period of time in conjuction with a receptor loading dose of the therapeutic agent” (priority 1999, published 2002).

One data set concerns opiate receptors. As to conditions: recommended dose of 50 mg taken orally; cited from earlier work.
A short description of data set [1]: Naltrexone plasma pharmacokinetics from the literature and its reinterpretation. The data set is classed as in vivo. An excerpt:
Phase II (RLD)—Days two to thirty. […] The higher serum levels of this phase serve two purposes. First, for the particular therapeutic agent chosen, the long-term maintenance dose releases drug slowly at a constant (zero order) rate. […] It has the disadvantage, however, that the plasma level will slowly rise until it reaches a plateau, which is referred to as steady state. The time to reach steady state is a function of the drug's half-life, a measure of the time it takes for half of the drug to be eliminated from the body. It takes approximately six half-lives to reach steady state for any drug. […] During this time it is essential that an additional source of drug be administered as a receptor loading dose to continue to saturate the drug receptors. A second reason for this loading dose, particularly for drugs used to treat addictions, is to prevent cravings and other withdrawal symptoms.
A period of approximately 3.3 half-lives is necessary to achieve a 90% receptor occupancy level.
Phase II (months 1 to 2) provides higher levels than the minimum needed to prevent narcotic highs. […] For pharmacokinetic reasons, the higher levels are also needed until the steady state distribution levels are reached through the slower maintenance dose.

As to `O=C1CC[C@@]2(O)[C@H]3Cc4ccc(O)c5c4[C@@]2(CCN3CC2CC2)[C@H]1O5` [naltrexone], the “duration of complete blockage” value in the data set on opiate receptors was 24 h. In data set [1] (calculated as 3.3×72 hr at the maintenance rate), the “time to reach 90% receptor occupancy level” value is recorded as “about 10 days”. Besides, in data set [1] (maintenance rate), the “time to reach 98% occupancy” value is reported as “about 20 days”. Further, the steady state level entry in data set [1] (subcutaneous product, zero order rate of 0.56 mg/day) is “about 7.5 ng/ml”.
